Values quoted from earlier work, collected in patent publication US20120177733A1 (priority 2005, published 2012).

Tests used:
[1] = not given; remark: listed apart in the source

| SMILES | absolute (oral) bioavailability | absolute oral bioavailability, wide range | solubility in water [1] |
| --- | --- | --- | --- |
| CCCCC(=O)N(Cc1ccc(-c2ccccc2-c2nnn[nH]2)cc1)[C@H](C(=O)O)C(C)C [valsartan, (S)—N-valeryl-N-{[2′-(1H-tetrazole-5-yl)-biphenyl-4-yl]-methyl}-valine] | about 25% | 10-35% |  |
| CCOC(=O)C1=C(COCCN)NC(C)=C(C(=O)OC)C1c1ccccc1Cl (stereo not shown) [Amlodipine besylate, 3-ethyl-5-methyl-2(2-aminoethoxymethyl)-4-(2-chlrorophenyl)-1,4-dihydro-6-methyl-3,5-pyridinedicarboxylate benzenesulphonate] | 64-90% |  | slightly soluble |
